Patent US9796700B2 (Celgene CAR LLC, priority 2013, dated 2017)
Like-named read-outs stand apart in the source and are kept apart here.

What was measured:
[1] = biological target: T1, Erk1 (Homo sapiens (Human), UniProt P27361); assay: Protein Mass Modification Assay (intact protein MALDI); type: binding
Outline: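 Human Erk1 was incubated 60 min at room temperature with a 10-fold molar excess of compound, then analysed as intact protein by MALDI with sinapinic acid matrix. The centroid mass shift versus untreated protein was divided by compound molecular weight to give percent modified protein.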
Target sequence in this assay (P27361 whole entry, looked up): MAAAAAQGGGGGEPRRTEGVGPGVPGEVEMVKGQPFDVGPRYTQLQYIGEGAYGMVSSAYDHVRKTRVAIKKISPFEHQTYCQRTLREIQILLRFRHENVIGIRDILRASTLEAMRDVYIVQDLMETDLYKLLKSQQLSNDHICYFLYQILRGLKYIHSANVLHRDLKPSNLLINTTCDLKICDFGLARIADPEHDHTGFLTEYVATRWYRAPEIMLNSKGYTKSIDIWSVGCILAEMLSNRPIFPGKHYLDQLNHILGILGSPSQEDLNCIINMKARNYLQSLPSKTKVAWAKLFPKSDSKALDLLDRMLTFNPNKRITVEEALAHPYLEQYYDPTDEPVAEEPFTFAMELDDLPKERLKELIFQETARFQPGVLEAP

[2] = biological target: T1, Erk1; assay: Measurement of Erk occupancy with biotinylated covalent probe I-299; type: cell-based; settings: HT-29 cells
Description: Measurement of Erk Occupancy with Biotinylated Covalent Probe
This experiment measured occupancy of the ERK1 target by compounds according to the invention. This experiment was conducted using the Mesoscale Discovery test kit (Cat. #N45107B). One day before the assay, cells were split and added at 50,000 cells per well to a flat-bottom 96 well plate in 200 μl of growth medium. The next day, the medium was discarded, 100 μl medium containing test compound was added, and the plate was incubated at 37° C. for 120 minutes. The plate was rinsed once with PBS, and 50 μl lysis buffer with test compound was added. The plate was incubated at 4° C. for 30 min, and 30 μl of lysate was transferred to a plate to capture total and phosphor-Erk. Biotinylated probe I-299 was diluted in lysis buffer and added to each well to a final concentration of 0.2 μM. The plate was incubated for 2 hr under constant shaking at room temperature. The plate was washed 3 times with MSD wash buffer. To detect the biotinylated probe bonding, tagged streptavidin was added (MSD, Cat#R32AD-1) at 1 μg/ml, 25 μl/well, followed by a 60 min incubation under shaking. The plate was washed 3 times, 150 μl MSD Read Buffer (Cat#R61TX) was added and the plate was read in a plate reader manufactured by MSD. Percent occupancy by test compound at Erk was calculated by comparing the chemiluminescence readings from treated cells as compared to the chemiluminescence readings in untreated controls (which are defined as 100% probe bonding or 0% occupancy). The amount of covalent probe signal divided by the amount of ERK signal for samples with no test compound treatment represents the maximum probe signal (MPS). In samples treated with test compound prior to covalent probe, the ratio of probe signal to ERK signal (the test probe signal, TPS) was reduced by the degree of target occupancy by the test compound which blocks covalent probe binding. The difference between the MPS and the TPS, divided by the MPS gave the target occupancy by the test compound. This ratio was then expressed as a percent occupancy. Results from this assay are provided in Table A below under the column “Occupancy EC50 (nM) HT-29.”
Target sequence in this assay (P27361 2-379 limits assumed): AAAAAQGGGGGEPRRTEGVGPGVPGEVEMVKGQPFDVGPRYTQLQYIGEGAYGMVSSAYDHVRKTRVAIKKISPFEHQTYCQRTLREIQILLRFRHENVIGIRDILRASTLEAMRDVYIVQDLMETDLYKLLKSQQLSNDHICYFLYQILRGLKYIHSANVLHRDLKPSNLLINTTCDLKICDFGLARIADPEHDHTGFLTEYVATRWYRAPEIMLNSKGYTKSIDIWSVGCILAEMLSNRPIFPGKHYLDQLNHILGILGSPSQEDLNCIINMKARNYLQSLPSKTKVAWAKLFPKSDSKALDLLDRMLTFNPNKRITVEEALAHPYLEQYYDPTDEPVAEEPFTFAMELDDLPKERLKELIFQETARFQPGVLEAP

[3] = biological target: MEK1 activated ERK1 (Homo sapiens (Human), UniProt P27361); assay: Omnia continuous-read kinase assay for potency against MEK1 activated ERK1; type: biochemical
Outline: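 Apparent IC50 came from initial reaction slopes (RFU vs time) plotted against log inhibitor with a variable-slope fit. Reactions were started with ERK1 (4 nM final) added to 50 μM ATP, roughly at its appKM, and 10 μM Sox-conjugated ST17 peptide in 20 mM Tris pH 7.5, 5 mM MgCl2. Fluorescence was monitored every 71 seconds.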

[4] = test system: ERK1 phosphorylation of its substrate RSK in HT29 cells; assay: pRSK MSD Assay in HT29 cells; type: cell-based; settings: Homo sapiens
Outline: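 HT29 cells were serum-starved overnight in 0.1% FBS, then treated with compound for 120 min at 37 °C. Lysates were assayed on MSD plates with RSK capture and phospho-RSK detection antibodies using electrochemiluminescence read-out.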

[5] = test system: HT-29 cells; assay: Measurement of inhibition of cancer cell proliferation (CellTiterGlo); type: cell-based; settings: Homo sapiens, 72 hours
Description: Measurement of Inhibition of Cancer Cell Proliferation
HT-29 cells were split and 3000 cells in 100 μl of growth medium were added per well of a flat-bottom 96-well plate. A two-fold test compound solution in serum-free RPM1640 was made, starting at 5,000 nM. Then, 3-fold serial dilutions were made across the plate from well 1 to well 11. Well 12, the last well in a row on the plate, was left as untreated control. 100 μl compound solutions were then transferred to the wells, so the total volume of media was 200 μl per well. Plates were returned to a 37° C. incubator, and the cells were cultured for 72 hours. To measure cell proliferation after 72 hours, media was discarded from the plates, 50 μl/well of fresh medium was added, and 50 μl CellTiterGlo solution was added (Promega Cat#G7573). The plate was covered with a dark lid and incubated for 10 min. A sealing tape was applied to the bottom of the plate, and the plate was read in a luminescence plate reader. […] A 2-fold serial dilution was used to generate 8 cell densities from 50,000-390 cells per well in 50 μl media. 50 μl CellTiterGlo was added per well, and the plate was read in a luminescence plate reader after 10 min. The reading was plotted vs. cell number to generate a standard curve and the equation of the curve fit. The compound-treated sample luminescence readings were converted to cell numbers using the equation. The percent of inhibition, using untreated control as 100% growth, was then calculated. GI50 was then calculated by GraphPad Prism.

[6] = MEK1 activated ERK1, WT, ATP at KM
[7] = HT-29, HT29 cells, read-out: ERK1 PRSK MSD HT29 EC50

Chain of MEK1 activated ERK1 (P27361 whole entry): as the sequence (P27361 whole entry, looked up) above

Row | ERK1 Mass Mod (%) [1] | EC50 [2] [nM] | IC50 [3, 6] [nM] | EC50 [4, 7] [nM] | Compound | GI50 [5] [nM] | IC50 ([3]; read-out: ERK1 Omnia WT ATP KM IC50) [nM] | EC50 ([4]; HT-29, read-out: ERK1 PRSK MSD HT29 EC50 (nM)) [nM]
1 | E (provided a mass modification of ≧70%) | < 100 |  |  | C=CC(=O)Nc1ccccc1Nc1nc(N[C@@H]2CCC[C@H](C(N)=O)C2)ncc1C(F)(F)F (racemic) [Compound I-2, Rac-cis-3-((4-((2-acrylamidophenyl)amino)-5-(trifluoromethyl)pyrimidin-2-yl)amino)cyclohexanecarboxamide] |  |  | 
2 | E (provided a mass modification of ≧70%) | < 100 | < 100 |  | C=CC(=O)Nc1ccccc1Nc1nc(N[C@@H]2CCC[C@H](C(N)=O)C2)ncc1Cl (racemic) [Compound I-102, Rac-cis-3-(4-(2-acrylamidophenylamino)-5-chloropyrimidin-2-ylamino)cyclohexane carboxamide] |  |  | 
3 | E (provided a mass modification of ≧70%) | < 100 | < 100 |  | C=CC(=O)Nc1ccccc1Nc1nc(Nc2cc(C(N)=O)c(F)cc2C)ncc1C(F)(F)F [Compound I-76, 5-((4-((2-Acrylamidophenyl)amino)-5-(trifluoromethyl)pyrimidin-2-yl)amino)-2-fluoro-4-methylbenzamide] |  |  | 
4 | E (provided a mass modification of ≧70%) | < 100 | < 100 |  | C=CC(=O)Nc1ccccc1Nc1nc(Nc2cc(CO)c(F)cc2C)ncc1C(F)(F)F [Compound I-77, N-(2-((2-((4-Fluoro-5-(hydroxymethyl)-2-methylphenyl)amino)-5-(trifluoromethyl)pyrimidin-4-yl)amino)phenyl)acrylamide] |  |  | 
5 | E (provided a mass modification of ≧70%) | < 100 | < 100 |  | C=CC(=O)Nc1ccccc1Nc1nc(Nc2cc(S(N)(=O)=O)ccc2C)ncc1Cl [Compound I-205, N-(2-((5-chloro-2-((2-methyl-5-sulfamoylphenyl)amino)pyrimidin-4-yl)amino)phenyl)acrylamide] |  |  | 
6 | E (provided a mass modification of ≧70%) | < 100 | < 100 |  | C=CC(=O)Nc1cc(F)ccc1Nc1nc(Nc2cc(C(N)=O)ccc2C)ncc1Cl [Compound I-206, 3-((4-((2-acrylamido-4-fluorophenyl)amino)-5-chloropyrimidin-2-yl)amino)-4-methylbenzamide] |  |  | 
7 | E (provided a mass modification of ≧70%) | < 100 | < 100 |  | C=CC(=O)Nc1ccccc1Nc1nc(Nc2cc(C(N)=O)ccc2C)ncc1Cl [Compound I-319, 3-(4-(2-acrylamidophenylamino)-5-chloropyrimidin-2-ylamino)-4-methylbenzamide] |  |  | 
8 | E (provided a mass modification of ≧70%) |  |  | < 100 | C=CC(=O)Nc1cc(C)ccc1Nc1nc(Nc2cc(N[C@H]3CC[C@@H](O)CC3)nc(OC)c2)ncc1C(F)(F)F [Compound I-326, N-(2-((2-((2-((cis-4-hydroxycyclohexyl)amino)-6-methoxypyridin-4-yl)amino)-5-(trifluoromethyl)pyrimidin-4-yl)amino)-5-methylphenyl)acrylamide] | < 100 |  | 
9 | E (provided a mass modification of ≧70%) |  |  | < 100 | C=CC(=O)Nc1cc(C)ccc1Nc1nc(Nc2nc(OC)ncc2C(F)(F)F)ncc1C(F)(F)F [Compound I-355, N-(2-((2-((2-methoxy-5-(trifluoromethyl)pyrimidin-4-yl)amino)-5-(trifluoromethyl)pyrimidin-4-yl)amino)-5-methylphenyl)acrylamide] | 101 to 500 |  | 

Row | Compound | ERK1 Mass Mod (%) [1] | EC50 [2] [nM] | IC50 [3, 6] [nM] | EC50 [4, 7] [nM] | GI50 [5] [nM] | IC50 ([3]; read-out: ERK1 Omnia WT ATP KM IC50) [nM] | EC50 ([4]; HT-29, read-out: ERK1 PRSK MSD HT29 EC50 (nM)) [nM]
10 | C=CC(=O)Nc1cc(C)ccc1Nc1nc(N[C@H]2CCCN(C(=O)CF)C2)ncc1C(F)(F)F [Compound I-43, (S)—N-(2-((2-((1-(2-Fluoroacetyl)piperidin-3-yl)amino)-5-(trifluoromethyl)pyrimidin-4-yl)amino)-5-methylphenyl)acrylamide] | E (provided a mass modification of ≧70%) |  | < 100 | 101 to 500 | < 100 |  | 
11 | C=CC(=O)Nc1ccccc1Nc1nc(Nc2ccc(F)cc2C#N)ncc1Cl [Compound I-211, N-(2-((5-chloro-2-((2-cyano-4-fluorophenyl)amino)pyrimidin-4-yl)amino)phenyl) acrylamide] | F (provided a mass modification of 31-69%) | < 100 | < 100 |  |  |  | 
12 | C=CC(=O)Nc1cc(F)ccc1Nc1nc(Nc2ccc(F)cc2C)ncc1Cl [Compound I-212, N-(2-((5-chloro-2-((4-fluoro-2-methylphenyl)amino)pyrimidin-4-yl)amino)-5-fluorophenyl)acrylamide] | F (key: E: provided a mass modification of ≧70%; F: provided a mass modification of 31-69%; G: proived a mass modification ≦30%) | < 100 |  |  |  | < 100 | 
13 | C=CC(=O)Nc1ccccc1Nc1nc(Nc2cc(C(N)=O)c(F)cc2C)ncc1Cl [Compound I-214, 5-((4-((2-acrylamidophenyl)amino)-5-chloropyrimidin-2-yl)amino)-2-fluoro-4-methylbenzamide] | F (provided a mass modification of 31-69%) | < 100 | < 100 |  |  |  | 
14 | C=CC(=O)Nc1cc(C)ccc1Nc1nc(Nc2cc(NC3CCC(C)(O)CC3)nc(OC)c2)ncc1C(F)(F)F (stereo not drawn) [Compound I-327, N-(2-((2-((2-((trans-4-hydroxy-4-methylcyclohexyl)amino)-6-methoxypyridin-4-yl)amino)-5-(trifluoromethyl)pyrimidin-4-yl)amino)-5-methylphenyl)acrylamide] | E (key: E: provided a mass modification of ≧70%; F: provided a mass modification of 31-69%; G: proived a mass modification ≦30%) |  |  |  | < 100 |  | < 100
